According to patent US4357470A, “Cephalosporin compounds” (Taisho Pharmaceutical Co., Ltd., priority 1980, dated 1982):
Where a name gives a salt, the structure may show the parent alone. Read-outs that look alike come from different tables or passages of the source.

Legend:
[1] = system: Pseudomonas aeruginosa NC-5; assay: Antibacterial activity, agar plate dilution method (MIC), P. aeruginosa; format: cell-based; conditions: NC5
Protocol: (§1) Antibacterial activities of the compounds of the present invention were tested about various microorganisms using an agar plate dilution method. Commercial cefazolin sodium was used as a control. The test results for 7-[D-α-(4-hydroxy-pyrazino[2,3-f]quinoline-3-carboxamido)-α-phenylacetamido]-3-(1-carboxymethyl-tetrazole-5-yl)thiomethyl-Δ^3 -cephem-4-carboxylic acid disodium salt (TC-203) and 7-[D-Δ-(4-hydroxy-pyrazino[2,3-f]quinoline-3-carboxamido)-Δ-(4-hydroxyphenyl)acetamido]-3-(1-carboxymethyl-tetrazole-5-yl)thiomethyl-Δ^3 -cephem-4-carboxylic acid disodium salt (TC-403) are expressed by MIC value (Minimum Inhibitory Concentration, μg/ml) and shown in Table 1.

Escherichia coli NIHJC-2 = assay: Antibacterial activity, agar plate dilution method (MIC), E. coli; format: cell-based; conditions: NIHJC2
Protocol: as §1

in vivo = assay: in vivo; parameters: species or system mice; conditions: mouse, im
Protocol: The compounds of the present invention were administered to mice intramuscularly and change of blood levels with lapse of time was determined. Commercial cefazolin sodium was used as a control.

[2] = system: Staphylococcus aureus FDA 209 P; assay: Antibacterial activity, agar plate dilution method (MIC), S. aureus; format: cell-based; conditions: FDA209
Protocol: as §1

Proteus vulgaris IID 874 = assay: Antibacterial activity, agar plate dilution method (MIC), P. vulgaris; format: cell-based; conditions: IID874
Protocol: as §1

[3] = system: Klebsiella pneumoniae 3K-2; assay: Antibacterial activity, agar plate dilution method (MIC), K. pneumoniae; format: cell-based; conditions: 3K2
Protocol: as §1

[4] = Intraperitoneal acute toxicity in rats; format: in vivo; conditions: dose less than 5000 mg/kg of body weight
Text: The compounds of the present invention are of low toxicity.

[5] = Escherichia coli NIHJC-2, agar plate dilution, read-out: MIC

Structure (SMILES)	MIC [1] [mg/L]	MIC (Escherichia coli NIHJC-2; [5]) [mg/L]	concentration at 0.25 h (in vivo) [µg/mL]	concentration at 0.5 h (in vivo) [µg/mL]	concentration at 1 h (in vivo) [µg/mL]	concentration at 2 h (in vivo) [µg/mL]	MIC [2] [mg/L]	MIC (Proteus vulgaris IID 874) [mg/L]	MIC [3] [mg/L]	intraperitoneal acute toxicity [4]	MIC (Escherichia coli NIHJC-2; Escherichia coli) [mg/L]
O=C(O)Cn1nnnc1SCC1=C(C(=O)O)N2C(=O)[C@@H](NC(=O)[C@H](NC(=O)c3cnc4ccc5nccnc5c4c3O)c3ccccc3)[C@H]2SC1 [TC-203, 7-[D-α-(4-hydroxy-pyrazino[2,3-f]quinoline-3-carboxamido)-α-phenylacetamido]-3-(1-carboxymethyl-tetrazole-5-yl)thiomethyl-Δ^3-cephem-4-carboxylic acid disodium salt]	12.5	0.78	150	162	82	32	3.13	1.56	0.78		
O=C(O)Cn1nnnc1SCC1=C(C(=O)O)N2C(=O)[C@@H](NC(=O)[C@H](NC(=O)c3cnc4ccc5nccnc5c4c3O)c3ccc(O)cc3)[C@H]2SC1 [TC-403, 7-[D-Δ-(4-hydroxy-pyrazino[2,3-f]quinoline-3-carboxamido)-Δ-(4-hydroxyphenyl)acetamido]-3-(1-carboxymethyl-tetrazole-5-yl)thiomethyl-Δ^3-cephem-4-carboxylic acid disodium salt]	12.5	1.56	92	180	62	42	6.25	3.13	1.56	hardly shows any intraperitoneal acute toxicity in rats at a dose less than 5000 mg/kg of body weight	
Cc1nnc(SCC2=C(C(=O)O)N3C(=O)[C@@H](NC(=O)Cn4cnnn4)[C@H]3SC2)s1 [cefazolin sodium, reference compound]	> 100		62	42	5.5		< 0.1	> 100	> 100		1.56
